Results published in US10597388B2, “Pyridazinone herbicides” (FMC CORPORATION, priority 2014, dated 2020).

How the values were obtained:
Test in all cases: Test C greenhouse herbicide test, pre- and postemergence
Format in all cases: in vivo
[1] = test system: barnyardgrass (Echinochloa crus-galli)
How it was run: (§1)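 Pre- and postemergence greenhouse screen; values are visual control ratings, 0 meaning no effect and 100 complete kill, assigned relative to untreated plants after 13 to 15 d.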

[2] = test system: blackgrass (Alopecurus myosuroides)
How it was run: as §1

corn (Zea mays) = test system: corn (Zea mays)
How it was run: as §1

[3] = test system: crabgrass, large (large crabgrass, Digitaria sanguinalis)
How it was run: as §1

[4] = test system: foxtail, giant (giant foxtail, Setaria faberii)
How it was run: as §1

[5] = test system: galium (catchweed bedstraw, Galium aparine)
How it was run: as §1

[6] = test system: johnsongrass (Sorghum halepense)
How it was run: as §1

[7] = test system: nutsedge, yellow (yellow nutsedge, Cyperus esculentus)
How it was run: as §1

[8] = test system: ryegrass, Italian (Italian ryegrass, Lolium multiflorum)
How it was run: as §1

soybean (Glycine max) = test system: soybean (Glycine max)
How it was run: as §1

[9] = test system: velvetleaf (Abutilon theophrasti)
How it was run: as §1

[10] = test system: wheat (winter wheat, Triticum aestivum)
How it was run: as §1

[11] = Postemergence, 31 g ai/ha, scale 0 to 100 (0 no effect, 100 complete control)
[12] = Postemergence, 125 g ai/ha, scale 0 to 100, 0 is no effect, 100 is complete control
[13] = Postemergence, 250 g ai/ha, scale 0 to 100, 0 no effect, 100 complete control, 13 to 15 d
[14] = Preemergence, 31 g ai/ha, scale 0 to 100, 0 is no effect, 100 is complete control
[15] = Preemergence, 62 g ai/ha, scale 0 to 100, 0 is no effect, 100 is complete control
[16] = Preemergence, 125 g ai/ha, scale 0 to 100, 0 is no effect, 100 is complete control
[17] = Preemergence, 250 g ai/ha, scale 0 to 100, 0 no effect, 100 complete control
[18] = postemergence, 62 g ai/ha, scale 0 to 100, 0 no effect, 100 complete control

In the case of `Cc1nn(C)c(=O)c(-c2c(C)sc3ccc(C(F)(F)F)cc23)c1O` [Compound 121], the “Plant response rating, Barnyardgrass” value [1, 11] is reported as 20, the “Plant response rating, Barnyardgrass” value [1, 12] is reported as 25 and the “Plant response rating, Barnyardgrass” value [1, 13] is reported as 30. The “Plant response rating, Barnyardgrass” value [1, 14] was 5, the “Plant response rating, Barnyardgrass” value [1, 15] was 10 and the “Plant response rating, Barnyardgrass” value [1, 16] was 55. The “Barnyardgrass plant response rating” value [1, 17] was 60, the “Barnyardgrass plant response rating” value [1, 18] was 20 and the “Plant response rating, Blackgrass” value [2, 11] was 0. The “Plant response rating, Blackgrass” value [2, 12] was 15, the “Plant response rating, Blackgrass” value [2, 13] was 50 and the “Plant response rating, Blackgrass” value [2, 14] was 10. For the same compound, the “Plant response rating, Blackgrass” value [2, 15] was 45, the “Plant response rating, Blackgrass” value [2, 16] was 45 and the “Blackgrass plant response rating” value [2, 17] was 60. For the same compound, the “Blackgrass plant response rating” value [2, 18] was 15, the “Plant response rating, Corn” value (corn (Zea mays); [11]) was 0 and the “Plant response rating, Corn” value (corn (Zea mays); [12]) was 5. The “Plant response rating, Corn” value (corn (Zea mays); [13]) was 5, the “Plant response rating, Corn” value (corn (Zea mays); [14]) was 0 and the “Plant response rating, Corn” value (corn (Zea mays); [15]) was 0. For the same compound, the “Plant response rating, Corn” value (corn (Zea mays); [16]) was 0, the “Corn plant response rating” value (corn (Zea mays); [17]) was 5 and the “Corn plant response rating” value (corn (Zea mays); [18]) was 5. The “Plant response rating, Crabgrass, Large” value [3, 11] was 10, the “Plant response rating, Crabgrass, Large” value [3, 12] was 20 and the “Plant response rating, Crabgrass, Large” value [3, 13] was 40. For the same compound, the “Plant response rating, Crabgrass, Large” value [3, 14] was 0, the “Plant response rating, Crabgrass, Large” value [3, 15] was 10 and the “Plant response rating, Crabgrass, Large” value [3, 16] was 10. The “Crabgrass, Large plant response rating” value [3, 17] was 35, the “Crabgrass, Large plant response rating” value [3, 18] was 5 and the “Plant response rating, Foxtail, Giant” value [4, 11] was 20. For the same compound, the “Plant response rating, Foxtail, Giant” value [4, 12] was 70, the “Plant response rating, Foxtail, Giant” value [4, 13] was 85 and the “Plant response rating, Foxtail, Giant” value [4, 14] was 20. For the same compound, the “Plant response rating, Foxtail, Giant” value [4, 15] was 55, the “Plant response rating, Foxtail, Giant” value [4, 16] was 90 and the “Foxtail, Giant plant response rating” value [4, 17] was 95. The “Plant response rating, Galium” value [5, 11] was 90, the “Plant response rating, Galium” value [5, 12] was 95 and the “Plant response rating, Galium” value [5, 13] was 95. The “Plant response rating, Galium” value [5, 14] was 90, the “Plant response rating, Galium” value [5, 15] was 90 and the “Plant response rating, Galium” value [5, 16] was 98. For the same compound, the “Galium plant response rating” value [5, 17] was 100, the “Plant response rating, Johnsongrass” value [6, 11] was 0 and the “Plant response rating, Johnsongrass” value [6, 12] was 5. The “Plant response rating, Johnsongrass” value [6, 13] was 5, the “Plant response rating, Johnsongrass” value [6, 14] was 0 and the “Plant response rating, Johnsongrass” value [6, 15] was 0. The “Plant response rating, Johnsongrass” value [6, 16] was 0, the “Johnsongrass plant response rating” value [6, 17] was 10 and the “Plant response rating, Nutsedge, Yellow” value [7, 11] was 45. For the same compound, the “Plant response rating, Nutsedge, Yellow” value [7, 12] was 85, the “Plant response rating, Nutsedge, Yellow” value [7, 13] was 75 and the “Plant response rating, Nutsedge, Yellow” value [7, 14] was 10. The “Plant response rating, Nutsedge, Yellow” value [7, 15] was 25, the “Plant response rating, Nutsedge, Yellow” value [7, 16] was 20 and the “Nutsedge, Yellow plant response rating” value [7, 17] was 50. The “Plant response rating, Ryegrass, Italian” value [8, 11] was 85, the “Plant response rating, Ryegrass, Italian” value [8, 12] was 90 and the “Plant response rating, Ryegrass, Italian” value [8, 13] was 90. For the same compound, the “Plant response rating, Ryegrass, Italian” value [8, 14] was 75, the “Plant response rating, Ryegrass, Italian” value [8, 15] was 90 and the “Plant response rating, Ryegrass, Italian” value [8, 16] was 95. The “Ryegrass, Italian plant response rating” value [8, 17] was 100, the “Plant response rating, Soybean” value (soybean (Glycine max); [11]) was 0 and the “Plant response rating, Soybean” value (soybean (Glycine max); [12]) was 0. The “Plant response rating, Soybean” value (soybean (Glycine max); [13]) was 0, the “Plant response rating, Soybean” value (soybean (Glycine max); [14]) was 0 and the “Plant response rating, Soybean” value (soybean (Glycine max); [15]) was 0. The “Plant response rating, Soybean” value (soybean (Glycine max); [16]) was 0, the “Soybean plant response rating” value (soybean (Glycine max); [17]) was 0 and the “Plant response rating, Velvetleaf” value [9, 11] was 10. The “Plant response rating, Velvetleaf” value [9, 12] was 75, the “Plant response rating, Velvetleaf” value [9, 13] was 80 and the “Plant response rating, Velvetleaf” value [9, 14] was 60. For the same compound, the “Plant response rating, Velvetleaf” value [9, 15] was 75, the “Plant response rating, Velvetleaf” value [9, 16] was 85 and the “Velvetleaf plant response rating” value [9, 17] was 95. The “Plant response rating, Wheat” value [10, 11] was 5, the “Plant response rating, Wheat” value [10, 12] was 25 and the “Plant response rating, Wheat” value [10, 13] was 0. The “Plant response rating, Wheat” value [10, 14] was 0, the “Plant response rating, Wheat” value [10, 15] was 0 and the “Plant response rating, Wheat” value [10, 16] was 10. For the same compound, the “Wheat plant response rating” value [10, 17] was 15.
